Test results: patent US5438052A, “Cephalosporin derivatives” (Hoffmann-La Roche Inc., priority 1991, dated 1995)
≈ marks a conversion by molar mass, not a printed value. Where a name gives a salt, the structure may show the parent alone. Read-outs that look alike come from different tables or passages of the source.

How the values were obtained:
K. pneumoniae 418 = assay: Minimum inhibitory concentration in vitro, agar dilution method; format: cell-based; settings: Klebsiella pneumoniae
Source text: (§1) 1. Minimum Inhibitory Concentration in vitro
(§2) The activities ascertained, minimum inhibitory concentration (MIC) in μg/ml, are compiled in Table 1 hereinafter: […]

E. aerogenes CF153 = assay: as above; format: cell-based; settings: Klebsiella aerogenes; E. aerogenes CF153, agar dilution; read-out: MIC
Source text: as §1, §2

S. pyogenes 15 = assay: as above; format: cell-based; settings: Streptococcus pyogenes
Source text: as §1, §2

E. cloacae P99 = assay: as above; format: cell-based; settings: Enterobacter cloacae
Source text: as §1, §2

S. aureus 6538 = assay: as above; format: cell-based; settings: Staphylococcus aureus
Source text: as §1, §2

E. coli 25922 [1] = assay: as above; format: cell-based; settings: Escherichia coli
Source text: as §1, §2

C. freundii 902 = assay: as above; format: cell-based; settings: Citrobacter freundii
Source text: as §1, §2

E. cloacae 908R = assay: as above; format: cell-based; settings: Enterobacter cloacae
Source text: as §1, §2

P. aeruginosa MK1184 = assay: as above; format: cell-based; settings: Pseudomonas aeruginosa
Source text: as §1, §2

S. marcescens 69438 = assay: as above; format: cell-based; settings: Serratia marcescens
Source text: as §1, §2

E. cloacae 908SSi = assay: as above; format: cell-based; settings: Enterobacter cloacae
Source text: as §1, §2

P. aeruginosa 27853 = assay: as above; format: cell-based; settings: Pseudomonas aeruginosa
Source text: as §1, §2

P. aeruginosa BA = assay: as above; format: cell-based; settings: Pseudomonas aeruginosa
Source text: as §1, §2

P. vulgaris 1028 = assay: as above; format: cell-based; settings: Proteus vulgaris
Source text: as §1, §2

P. aeruginosa 799/61 = assay: as above; format: cell-based; settings: Pseudomonas aeruginosa
Source text: as §1, §2

P. mirabilis 2117 = assay: as above; format: cell-based; settings: Proteus mirabilis
Source text: as §1, §2

P. aeruginosa 799/WT = assay: as above; format: cell-based; settings: Pseudomonas aeruginosa
Source text: as §1, §2

K. oxytoca 1082 = assay: as above; format: cell-based; settings: Klebsiella oxytoca
Source text: as §1, §2

S. pneumoniae BA = assay: as above; format: cell-based; settings: Streptococcus pneumoniae
Source text: as §1, §2

[2] = tested on: Pseudomonas aeruginosa BA; assay: Experimental systemic septicaemia in the mouse; format: in vivo; settings: sc, 96 h
Procedure: (§3) 2. Experimental systemic septicaemia in the mouse
(§4) An experimental systemic septicaemia was produced in albino mice weighing 16-20 g by intraperitoneally injecting into the experimental animals a sample of a dilute culture of the test organism which had been grown overnight. The sample administered is calculated such that the dosage administered is about 5-100 times greater than the dosage which is required to kill 50% of untreated experimental animals within 48 hours. The bacteria were injected as a suspension in the culture broth. Groups of 5 experimental animals each were used not only for the control, but also for the treatment for each dosage tested. The products in accordance with the invention were administered subcutaneously as a suspension in Tween 80 (2%), whereby the concentrations were chosen such that each experimental animal received 500 μl per administration. The respective concentrations were administered twice, namely 1 and 3 hours after the infection (in the case of P. aeruginosa three times, namely 1, 3 and 5 hours after the infection). The ED50 is that dosage which protects 50% of the experimental animals and was calculated by means of the Probit method on the basis of the survial rate after 4 days following the infection. The ED50 values in mg/kg s.c. (subcutaneous) for representatives of the class of substance in accordance with the invention are given in Table 2 hereinafter.

E. coli 25922 [3] = assay: Experimental systemic septicaemia in the mouse; format: in vivo; settings: 96 h
Procedure: as §3, §4

[4] = K. pneumoniae 418, agar dilution, read-out: MIC
[5] = S. pyogenes 15, agar dilution, read-out: MIC
[6] = S. aureus 6538, agar dilution, read-out: MIC
[7] = E. coli 25922, agar dilution, read-out: MIC
[8] = C. freundii 902, agar dilution, read-out: MIC
[9] = E. cloacae 908R, agar dilution, read-out: MIC
[10] = P. aeruginosa MK1184, agar dilution, read-out: MIC
[11] = S. marcescens 69438, agar dilution, read-out: MIC
[12] = E. cloacae 908SSi, agar dilution, read-out: MIC
[13] = P. aeruginosa 27853, agar dilution, read-out: MIC
[14] = P. aeruginosa BA, agar dilution, read-out: MIC
[15] = P. vulgaris 1028, agar dilution, read-out: MIC
[16] = P. aeruginosa 799/61, agar dilution, read-out: MIC
[17] = P. mirabilis 2117, agar dilution, read-out: MIC
[18] = P. aeruginosa 799/WT, agar dilution, read-out: MIC
[19] = K. oxytoca 1082, agar dilution, read-out: MIC
[20] = S. pneumoniae BA, agar dilution, read-out: MIC
[21] = P. aeruginosa BA, albino mice, s.c. 1, 3 and 5 hours after infection, survival after 4 days, read-out: ED50
[22] = Escherichia coli, sc, E. coli 25922, albino mice, s.c. 1 and 3 hours after infection, survival after 4 days, read-out: ED50

Structure (SMILES) | MIC (K. pneumoniae 418; [4]) [µg/mL] | MIC (E. aerogenes CF153) [µg/mL] | MIC (S. pyogenes 15; [5]) [µg/mL] | MIC (E. cloacae P99) [µg/mL] | MIC (S. aureus 6538; [6]) [µg/mL] | MIC (E. coli 25922 [1]; [7]) [µg/mL] | MIC (C. freundii 902; [8]) [µg/mL] | MIC (E. cloacae 908R; [9]) [µg/mL] | MIC (P. aeruginosa MK1184; [10]) [µg/mL] | MIC (S. marcescens 69438; [11]) [µg/mL] | MIC (E. cloacae 908SSi; [12]) [µg/mL] | MIC (P. aeruginosa 27853; [13]) [µg/mL] | MIC (P. aeruginosa BA; [14]) [µg/mL] | MIC (P. vulgaris 1028; [15]) [µg/mL] | MIC (P. aeruginosa 799/61; [16]) [µg/mL] | MIC (P. mirabilis 2117; [17]) [µg/mL] | MIC (P. aeruginosa 799/WT; [18]) [µg/mL] | MIC (K. oxytoca 1082; [19]) [µg/mL] | MIC (S. pneumoniae BA; [20]) [µg/mL] | ED50 [2, 21] [mg/kg] | also measured
Nc1nc(/C(=N/OCc2cc(Cl)c(O)c(O)c2Cl)C(=O)N[C@@H]2C(=O)N3C(C(=O)O)=C(CSc4nc(-c5ccccc5)ncc4-c4ccc(O)c(O)c4)CS[C@H]23)cs1 [Example 18, (6R,7R)-7-[(Z)-2-(2-amino-4-thiazolyl)-2-[[(2,5-dichloro-3,4-dihydroxybenzyl)oxy]imino]acetamido]-3-[[[5-(3,4-dihydroxyphenyl)-2-phenyl-4-pyrimidinyl]thio]methyl]-8-oxo-5-thia-1-azabicyclo[4.2.0]oct-2-ene-2-carboxylic acid] | 0.12 (≈ 0.138 µM) | 0.12 (≈ 0.138 µM) | 1 (≈ 1.15 µM) | 16 (≈ 18.4 µM) | > 32 | 0.12 (≈ 0.138 µM) | 0.12 (≈ 0.138 µM) | 2 (≈ 2.3 µM) | 2 (≈ 2.3 µM) | 1 (≈ 1.15 µM) | 8 (≈ 9.21 µM) | 2 (≈ 2.3 µM) | 1 (≈ 1.15 µM) | 0.12 (≈ 0.138 µM) | < 0.1 | < 0.1 | 0.12 (≈ 0.138 µM) | 0.25 (≈ 0.288 µM) |  |  | 
CC(C)(O/N=C(\C(=O)N[C@@H]1C(=O)N2C(C(=O)O)=C(CS(=O)(=O)c3ccc(O)c(O)c3)CS[C@H]12)c1csc(N)n1)C(=O)NO [Example 21, (6R,7R)-7-[(Z)-2-(2-amino-4-thiazolyl)-2-[[(1-hydroxycarbamoyl)-1-methylethoxy]imino]acetamido]-3-[[(3,4-dihydroxyphenyl)sulphonyl]methyl]-8-oxo-5-thia-1-azabicyclo[4.2.0]oct-2-ene-2-carboxylic acid] | 0.5 (≈ 0.761 µM) |  | 16 (≈ 24.4 µM) | 16 (≈ 24.4 µM) | > 32 | 1 (≈ 1.52 µM) | 4 (≈ 6.09 µM) | 8 (≈ 12.2 µM) | > 32 | 1 (≈ 1.52 µM) | 8 (≈ 12.2 µM) | 8 (≈ 12.2 µM) | 8 (≈ 12.2 µM) | 2 (≈ 3.05 µM) | 0.25 (≈ 0.381 µM) | 1 (≈ 1.52 µM) | 8 (≈ 12.2 µM) | 1 (≈ 1.52 µM) | 8 (≈ 12.2 µM) | 0.39 | ED50 (E. coli 25922 [3]; [22]): < 0.3 mg/kg
Cc1cc(SCC2=C(C(=O)[O-])N3C(=O)[C@@H](NC(=O)/C(=N\OCS(=O)(=O)c4ccc(O)c(O)c4)c4csc(N)n4)[C@H]3SC2)n2nc(COC(=O)c3ccc(O)c(O)c3)nc2n1.[Na+] [Example 7, (6R,7R)-7-[(Z)-2-(2-amino-4-thiazolyl)-2-[[[(3,4-dihydroxyphenyl)sulphonyl]methoxy]imino]acetamido]-3-[[[2-[[(3,4-dihydroxybenzoyl)oxy]methyl]-5-methyl-s-triazolo[1,5-a]pyrimidin-7-yl]thio]methyl]-8-oxo-5-thia-1-azabicyclo[4.2.0]oct-2-ene-2-carboxylic acid sodium salt (1:1)] |  |  |  | 1 |  |  |  |  |  |  |  |  |  |  |  |  |  |  |  |  | MIC (K. pneumoniae 418; 418): < 0.1 µg/mL; MIC (S. pyogenes 15; 15): 4 µg/mL; MIC (S. aureus 6538; 6538): 32 µg/mL; MIC (E. coli 25922 [1]; 25922): < 0.1 µg/mL; MIC (C. freundii 902; 902): 0.12 µg/mL; MIC (E. cloacae 908R; 908R): 2 µg/mL; MIC (P. aeruginosa MK1184; MK1184): < 0.1 µg/mL; MIC (S. marcescens 69438; 69438): 0.12 µg/mL; MIC (E. cloacae 908SSi; 908SSI): 4 µg/mL; MIC (P. aeruginosa 27853; 27853): 1 µg/mL; MIC (P. aeruginosa BA): 0.12 µg/mL; MIC (P. vulgaris 1028; 1028): 0.12 µg/mL; MIC (P. aeruginosa 799/61; 799/61): 0.25 µg/mL; MIC (P. mirabilis 2117; 2117): 0.12 µg/mL; MIC (S. pneumoniae BA): 2 µg/mL; MIC (P. aeruginosa 799/WT; 799/WT): 0.5 µg/mL; MIC (K. oxytoca 1082; 1082): < 0.1 µg/mL; ED50 [2]: 0.08 mg/kg; ED50 (E. coli 25922 [3]; Escherichia coli, 25922, sc): < 0.3 mg/kg
Cc1cc(SCC2=C(C(=O)[O-])N3C(=O)[C@@H](NC(=O)/C(=N\OCS(=O)(=O)c4ccc(O)c(O)c4)c4csc(N)n4)[C@H]3SC2)n2nc(CNS(=O)(=O)c3ccc(O)c(O)c3)nc2n1.[Na+] [Example 3, (6R,7R)-7-[(Z)-2-(2-amino-4-thiazolyl)-2-[[[(3,4-dihydroxyphenyl)sulphonyl]methoxy]imino]acetamido]-3-[[[2-[(3,4-dihydroxybenzenesulphonamido)methyl]-5-methyl-s-triazolo[1,5-a]pyrimidin-7-yl]thio]methyl]-8-oxo-5-thia-1-azabicyclo[4.2.0]oct-2-ene-2-carboxylic acid sodium salt (1:1)] |  |  |  | 0.5 |  |  |  |  |  |  |  |  |  |  |  |  |  |  |  |  | MIC (K. pneumoniae 418; 418): < 0.1 µg/mL; MIC (S. pyogenes 15; 15): 4 µg/mL; MIC (S. aureus 6538; 6538): 32 µg/mL; MIC (E. coli 25922 [1]; 25922): < 0.1 µg/mL; MIC (C. freundii 902; 902): 0.12 µg/mL; MIC (E. cloacae 908R; 908R): 1 µg/mL; MIC (P. aeruginosa MK1184; MK1184): < 0.1 µg/mL; MIC (S. marcescens 69438; 69438): 0.12 µg/mL; MIC (E. cloacae 908SSi; 908SSI): 8 µg/mL; MIC (P. aeruginosa 27853; 27853): 0.25 µg/mL; MIC (P. aeruginosa BA): < 0.1 µg/mL; MIC (P. vulgaris 1028; 1028): < 0.1 µg/mL; MIC (P. aeruginosa 799/61; 799/61): < 0.1 µg/mL; MIC (P. mirabilis 2117; 2117): < 0.1 µg/mL; MIC (S. pneumoniae BA): 2 µg/mL; MIC (P. aeruginosa 799/WT; 799/WT): 0.12 µg/mL; MIC (K. oxytoca 1082; 1082): 0.25 µg/mL; ED50 [2]: 0.04 mg/kg; ED50 (E. coli 25922 [3]; Escherichia coli, 25922, sc): 0.1 mg/kg
CC(C)(O/N=C(\C(=O)N[C@@H]1C(=O)N2C(C(=O)O)=C(CSc3ncncc3-c3ccc(O)c(O)c3)CS[C@H]12)c1csc(N)n1)C(=O)NO [Example 19a, (6R,7R)-7-[(Z)-2-(2-amino-4-thiazolyl)-2-[[1-(hydroxycarbamoyl)-1-methylethoxy]imino]acetamido]-3-[[[5-(3,4-dihydroxyphenyl)-4-pyrimidinyl]thio]methyl]-8-oxo-5-thia-1-azabicyclo[4.2.0]oct-2-ene-2-carboxylic acid] | < 0.1 | 0.12 (≈ 0.171 µM) | 0.5 (≈ 0.711 µM) | 16 (≈ 22.8 µM) | 16 (≈ 22.8 µM) | < 0.1 | 0.25 (≈ 0.356 µM) | 16 (≈ 22.8 µM) | 16 (≈ 22.8 µM) | 0.12 (≈ 0.171 µM) | 2 (≈ 2.85 µM) | 2 (≈ 2.85 µM) | 1 (≈ 1.42 µM) | 0.12 (≈ 0.171 µM) | < 0.1 | 0.25 (≈ 0.356 µM) | 0.25 (≈ 0.356 µM) | 1 (≈ 1.42 µM) |  |  | 
Nc1nc(/C(=N/OCS(=O)(=O)c2ccc(O)c(O)c2)C(=O)N[C@@H]2C(=O)N3C(C(=O)O)=C(CS(=O)(=O)c4ccc(O)c(O)c4)CS[C@H]23)cs1 [Example 22, (6R,7R)-7-[(Z)-2-(2-amino-4-thiazolyl)-2-[[(3,4-dihydroxysulphonyl)methoxy]imino]acetamido]-3-[[(3,4-dihydroxyphenyl)sulphonyl]methyl]-8-oxo-5-thia-1-azabicyclo[4.2.0]oct-2-ene-2-carboxylic acid sodium salt] | 0.5 |  | 16 | 32 | > 32 | 8 | 16 | 32 | > 32 | 16 | 16 | 32 | > 32 | 16 | 0.25 | 16 | 16 | 0.5 | 16 | 1.8 | ED50 (E. coli 25922 [3]; [22]): < 0.05 mg/kg
